{
  "source": "patent US20250346579A1",
  "about": "“PYRIDAZINONE COMPOUND AND PREPARATION METHOD THEREFOR, PHARMACEUTICAL COMPOSITION THEREOF, AND APPLICATION THEREOF” (CHINA PHARMACEUTICAL UNIVERSITY, priority 2021, published 2025)",
  "key": {"[1]": {"assay": "Pharmacokinetic study in ICR mice", "assay_type": "in vivo", "procedure": "(§1) Experimental process: 12 male ICR mice were selected, 6 of the […] were orally administrated (3 of them were administered with RBN-2397, and the remaining 3 were administered with I-A-1, at a dose of 10 mg/kg), 6 of the rats were administered intravenously (3 of them were administered with RBN-2397, and the remaining 3 were administered with I-A-1, at a dose of 1 mg/kg), blood samples were collected at 0 min, 2 min, 5 min, 10 min, 20 min, 30 min, 60 min, 2 h, 4 h, 6 h, and 8 h, respectively, and then centrifuged (at 3000 rpm for 5 min), a supernatant was collected and analyzed by LC-MS-MS, and results were analyzed by using WinNonlin Software."}, "[2]": {"test_system": "NCI-H1373 cells", "conditions": "NCI-H1373 xenograft; dose of >30 mg/kg orally once a day; cited from earlier work"}, "[3]": {"conditions": "in words, background; cited from earlier work"}, "[4]": {"assay": "Pharmacokinetic study in SD rats", "assay_type": "in vivo", "procedure": "as §1, with “SD rats” for “ICR mice”"}, "[5]": {"conditions": "male, mouse, supernatant of centrifuged blood, IV 1 mg/kg"}, "[6]": {"conditions": "male, mouse, supernatant of centrifuged blood, PO 10 mg/kg"}, "[7]": {"conditions": "male, rat, supernatant of centrifuged blood, IV 1 mg/kg"}, "[8]": {"conditions": "male, rat, supernatant of centrifuged blood, PO 10 mg/kg"}},
  "data": [
    {"smiles": "C[C@@H](COCCC(=O)N1CCN(c2ncc(C(F)(F)F)cn2)CC1)Nc1cn[nH]c(=O)c1C(F)(F)F", "note": "[RBN-2397, reference compound]", "values": [
      {"measurement": "F", "setting": "[1]; PO 10 mg/kg", "result": 25.67, "unit": "%"},
      {"measurement": "AUC", "setting": "[1]; [5]", "result": 256, "unit": "ng·h/mL"},
      {"measurement": "Cmax", "setting": "[1]; [5]", "result": 757, "unit": "ng/mL"},
      {"measurement": "clearance", "setting": "[1]; [5]", "result": 67, "unit": "mL/min/kg"},
      {"measurement": "half-life", "setting": "[1]; [5]", "result": 9, "unit": "min"},
      {"measurement": "AUC", "setting": "[1]; [6]", "result": 656, "unit": "ng·h/mL"},
      {"measurement": "Cmax", "setting": "[1]; [6]", "result": 1310, "unit": "ng/mL"},
      {"measurement": "half-life", "setting": "[1]; [6]", "result": 54, "unit": "min"},
      {"measurement": "anti-tumor effects", "setting": "[2]", "result": "significant anti-tumor effects"},
      {"measurement": "drug exposure and oral bioavailability in vivo", "setting": "[3]", "result": "low"},
      {"measurement": "in vivo clearance rate", "setting": "[3]", "result": "high"},
      {"measurement": "CL", "setting": "[4]; PO 10 mg/kg", "result": 381.342, "unit": "mL/min/kg"},
      {"measurement": "F", "setting": "[4]; PO 10 mg/kg", "result": 12.4, "unit": "%"},
      {"measurement": "AUC", "setting": "[4]; [7]", "result": 333, "unit": "ng·h/mL"},
      {"measurement": "Cmax", "setting": "[4]; [7]", "result": 836, "unit": "ng/mL"},
      {"measurement": "clearance", "setting": "[4]; [7]", "result": 50.6, "unit": "mL/min/kg"},
      {"measurement": "half-life", "setting": "[4]; [7]", "result": 16.8, "unit": "min"},
      {"measurement": "AUC", "setting": "[4]; [8]", "result": 415, "unit": "ng·h/mL"},
      {"measurement": "Cmax", "setting": "[4]; [8]", "result": 295, "unit": "ng/mL"},
      {"measurement": "half-life", "setting": "[4]; [8]", "result": 45, "unit": "min"}
    ]}
  ]
}
